“And” between values parts separate entries of the source, which are not always exact repeats. Equal values may be shown once. Toxic doses and inconclusive results are not listed. No stated cut-off is given here; in the data, active means T/C of 150% or more; inactive means T/C below 125%.
System: L1210 leukemia ip in BDF1 mice, survival T/C
Test: NCI In Vivo Anticancer Drug Screen. Data for tumor model L1210 Leukemia (intraperitoneal) in B6D2F1 (BDF1) mice
Conditions: endpoint: mean survival time, higher = longer survival
How it was run: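 Transplanted-tumor mice were given test agent; controls received vehicle only. Survival readings from the two groups were divided (treated over control).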

[1] = dose: 100.0 mg/kg/injection, schedule: Q01DX001 (ip), vehicle: saline sonified
[2] = dose: 200.0 mg/kg/injection, schedule: Q01DX001 (ip), vehicle: saline sonified
[3] = dose: 100.0 mg/kg/injection, schedule: Q01DX009 (ip), vehicle: saline with Tween-80
[4] = dose: 200.0 mg/kg/injection, schedule: Q01DX009 (ip), vehicle: saline with Tween-80
[5] = dose: 100.0 mg/kg/injection, schedule: Q01DX001 (ip), vehicle: saline
[6] = dose: 200.0 mg/kg/injection, schedule: Q01DX001 (ip), vehicle: saline
[7] = dose: 400.0 mg/kg/injection, schedule: Q01DX001 (ip), vehicle: saline
[8] = dose: 100.0 mg/kg/injection, schedule: Q04DX003 (ip), vehicle: saline
[9] = dose: 200.0 mg/kg/injection, schedule: Q04DX003 (ip), vehicle: saline
[10] = dose: 400.0 mg/kg/injection, schedule: Q01DX009 (ip), vehicle: saline with Tween-80
[11] = dose: 400.0 mg/kg/injection, schedule: Q04DX003 (ip), vehicle: saline
[12] = dose: 100.0 mg/kg/injection, schedule: Q01DX009 (ip), vehicle: Klucel (hydroxypropylcellulose) (HPC)
[13] = dose: 100.0 mg/kg/injection, schedule: Q04DX003 (ip), vehicle: Klucel (hydroxypropylcellulose) (HPC)
[14] = dose: 200.0 mg/kg/injection, schedule: Q01DX009 (ip), vehicle: Klucel (hydroxypropylcellulose) (HPC)
[15] = dose: 200.0 mg/kg/injection, schedule: Q04DX003 (ip), vehicle: Klucel (hydroxypropylcellulose) (HPC)
[16] = dose: 400.0 mg/kg/injection, schedule: Q01DX009 (ip), vehicle: Klucel (hydroxypropylcellulose) (HPC)
[17] = dose: 400.0 mg/kg/injection, schedule: Q04DX003 (ip), vehicle: Klucel (hydroxypropylcellulose) (HPC)

Measured: T/C

Cc1ccc(S(=O)(=O)N=S(Cc2ccccc2)Cc2ccccc2)cc1
inactive: dose: 50.0 mg/kg/injection, schedule: Q01DX001 (ip), vehicle: saline sonified 103 % of control | [1] 108 % of control | [2] 95 % of control

CSc1ncc(C#N)c(N)n1
inactive: dose: 50.0 mg/kg/injection, schedule: Q01DX009 (ip), vehicle: saline with Tween-80 98 % of control | [3] 93 % of control | dose: 100.0 mg/kg/injection, schedule: Q04DX003 (ip), vehicle: saline with Tween-80 97 % of control | [4] 104 % of control | dose: 200.0 mg/kg/injection, schedule: Q04DX003 (ip), vehicle: saline with Tween-80 94 % of control

O=S(=O)(/C=C/c1ccccc1)N1CCCCC1
inactive: [5] 103 % of control | [6] 102 % of control | [7] 102 % of control

CC[N+](CC)(CC)CCCCCCCCCC[N+](CC)(CC)CC
inactive: dose: 0.19 mg/kg/injection, schedule: Q01DX009 (ip), vehicle: water 100 % of control | dose: 0.39 mg/kg/injection, schedule: Q01DX009 (ip), vehicle: water 95 % of control | dose: 0.78 mg/kg/injection, schedule: Q01DX009 (ip), vehicle: water 90 % of control | dose: 0.78 mg/kg/injection, schedule: Q04DX003 (ip), vehicle: saline 103 % of control

NC(Cc1ccc([N+](=O)[O-])cc1)C(=O)O (stereo not given)
inactive: [1] 116 % of control | [3] 100 % of control and 98 % of control | [8] 111 % of control | [2] 103 % of control | [4] 95 % of control | [9] 101 % of control | dose: 400.0 mg/kg/injection, schedule: Q01DX001 (ip), vehicle: saline sonified 103 % of control | [10] 100 % of control and 92 % of control | [11] 90 % of control

COC1OCC2OC(C)(C)OC2C1OS(=O)(=O)c1ccc(C)cc1 (stereo not given)
inactive: dose: 50.0 mg/kg/injection, schedule: Q01DX001 (ip), vehicle: saline 91 % of control | [5] 104 % of control | [6] 102 % of control | [7] 98 % of control and 96 % of control

Cc1cccc(NC(=O)Nc2ccccc2F)n1
inactive: dose: 100.0 mg/kg/injection, schedule: Q01DX001 (ip), vehicle: Klucel (hydroxypropylcellulose) (HPC) 96 % of control | [12] 96 % of control | dose: 100.0 mg/kg/injection, schedule: Q04DX002 (ip), vehicle: Klucel (hydroxypropylcellulose) (HPC) 94 % of control and 87 % of control | [13] 99 % of control | dose: 200.0 mg/kg/injection, schedule: Q01DX001 (ip), vehicle: Klucel (hydroxypropylcellulose) (HPC) 91 % of control | [14] 96 % of control and 88 % of control | dose: 200.0 mg/kg/injection, schedule: Q04DX002 (ip), vehicle: Klucel (hydroxypropylcellulose) (HPC) 96 % of control and 91 % of control | [15] 111 % of control | [16] 105 % of control and 88 % of control | dose: 400.0 mg/kg/injection, schedule: Q04DX002 (ip), vehicle: Klucel (hydroxypropylcellulose) (HPC) 87 % of control and 91 % of control | [17] 97 % of control

Nc1cc(S(=O)O)c2cccnc2c1O
inactive: dose: 75.0 mg/kg/injection, schedule: Q01DX009 (ip), vehicle: Klucel (hydroxypropylcellulose) (HPC) 88 % of control | [13] 97 % of control | dose: 150.0 mg/kg/injection, schedule: Q01DX009 (ip), vehicle: Klucel (hydroxypropylcellulose) (HPC) 108 % of control | [15] 95 % of control | dose: 300.0 mg/kg/injection, schedule: Q01DX009 (ip), vehicle: Klucel (hydroxypropylcellulose) (HPC) 93 % of control

Cc1nc(=S)[nH][nH]1
inactive: [3] 102 % of control | dose: 100.0 mg/kg/injection, schedule: Q04DX002 (ip), vehicle: saline 103 % of control | [4] 122 % of control | dose: 200.0 mg/kg/injection, schedule: Q04DX002 (ip), vehicle: saline 94 % of control | [10] 96 % of control | dose: 400.0 mg/kg/injection, schedule: Q04DX002 (ip), vehicle: saline 87 % of control

CCN(CC)CCCC(C)Nc1nc(/C=C/c2ccc(Cl)cc2)nc(Cl)c1-c1ccc(Cl)cc1 (stereo not given)
inactive: [5] 89 % of control | [13] 95 % of control | [6] 88 % of control | [15] 101 % of control | [7] 96 % of control | [17] 104 % of control

C[CH2][Pb]([CH2]C)([CH2]C)[O]C(=O)c1ccc(N)cc1
inactive: dose: 0.75 mg/kg/injection, schedule: Q01DX009 (ip), vehicle: Klucel (hydroxypropylcellulose) (HPC) 91 % of control | dose: 1.5 mg/kg/injection, schedule: Q01DX009 (ip), vehicle: Klucel (hydroxypropylcellulose) (HPC) 100 % of control | dose: 3.0 mg/kg/injection, schedule: Q01DX009 (ip), vehicle: Klucel (hydroxypropylcellulose) (HPC) 100 % of control | dose: 6.0 mg/kg/injection, schedule: Q01DX009 (ip), vehicle: Klucel (hydroxypropylcellulose) (HPC) 102 % of control | dose: 12.0 mg/kg/injection, schedule: Q01DX009 (ip), vehicle: Klucel (hydroxypropylcellulose) (HPC) 103 % of control | dose: 12.5 mg/kg/injection, schedule: Q04DX002 (ip), vehicle: Klucel (hydroxypropylcellulose) (HPC) 110 % of control | dose: 25.0 mg/kg/injection, schedule: Q04DX002 (ip), vehicle: Klucel (hydroxypropylcellulose) (HPC) 103 % of control

CSc1ccnc2c1ncn2C1OC(CO)C(O)C1O (stereo not given)
inactive: dose: 100.0 mg/kg/injection, schedule: Q01DX001 (ip), vehicle: carboxymethylcellulose (CMC) 98 % of control | dose: 200.0 mg/kg/injection, schedule: Q01DX001 (ip), vehicle: carboxymethylcellulose (CMC) 104 % of control | dose: 400.0 mg/kg/injection, schedule: Q01DX001 (ip), vehicle: carboxymethylcellulose (CMC) 96 % of control

CC(=O)Nc1ccc(S(=O)(=O)Oc2ccc([N+](=O)[O-])cc2)cc1
inactive: dose: 25.0 mg/kg/injection, schedule: Q01DX009 (ip), vehicle: saline 94 % of control | dose: 50.0 mg/kg/injection, schedule: Q01DX009 (ip), vehicle: saline 96 % of control | dose: 100.0 mg/kg/injection, schedule: Q01DX009 (ip), vehicle: saline 94 % of control | dose: 400.0 mg/kg/injection, schedule: Q01DX009 (ip), vehicle: saline 100 % of control

CSc1ccccc1C(O)Cc1ccc([N+](=O)[O-])cc1 (stereo not given)
inactive: [12] 105 % of control | [8] 98 % of control | [14] 93 % of control | [9] 98 % of control | [16] 96 % of control | [11] 95 % of control

OCC1OC(n2cnc3c2NC=NC[C@H]3O)CC1O (stereo not given in full)
inactive: dose: 0.13 mg/kg/injection, schedule: Q01DX005 (ip), vehicle: water 100 % of control | dose: 0.13 mg/kg/injection, schedule: Q01DX009 (ip), vehicle: water 104 % of control | dose: 0.25 mg/kg/injection, schedule: Q01DX005 (ip), vehicle: water 105 % of control | dose: 0.25 mg/kg/injection, schedule: Q01DX009 (ip), vehicle: water 101 % of control | dose: 0.25 mg/kg/injection, schedule: Q04DX002 (ip), vehicle: water 98 % of control | dose: 0.25 mg/kg/injection, schedule: Q04DX003 (ip), vehicle: water 98 % of control | dose: 0.5 mg/kg/injection, schedule: Q04DX002 (ip), vehicle: water 95 % of control | dose: 0.5 mg/kg/injection, schedule: Q04DX003 (ip), vehicle: water 106 % of control

CCOC(=O)NC(=S)Nc1ccccc1NC(=S)NC(=O)OCC
inactive: dose: 100.0 mg/kg/injection, schedule: Q04DX003 (ip), vehicle: gum acacia 97 % of control | dose: 200.0 mg/kg/injection, schedule: Q04DX003 (ip), vehicle: gum acacia 97 % of control | dose: 400.0 mg/kg/injection, schedule: Q04DX003 (ip), vehicle: gum acacia 94 % of control

O=C(Nc1ccccc1F)Nc1cccc2ccc(O)cc12
inactive: dose: 100.0 mg/kg/injection, schedule: Q01DX009 (ip), vehicle: alcohol 95 % of control | dose: 200.0 mg/kg/injection, schedule: Q01DX009 (ip), vehicle: alcohol 98 % of control | dose: 400.0 mg/kg/injection, schedule: Q01DX009 (ip), vehicle: alcohol 93 % of control

Source: PubChem BioAssay AID248 (DTP/NCI, 2004)
